Laboratory results as given in patent US20230047208A1, “RNA Splicing Modulation” (The General Hospital Corporation, priority 2020, published 2023).

Test system: wildtype (WT) human fibroblast cell lines
Test: Transcriptome-wide splicing by RNA sequencing (RNASeq), exon triplet PSI change
Assay type: cell-based
Design: key to Effect: Exclusion; Inclusion; Unchanged
Text: FIG. 2A provides a representation of an exon triplet. Exon U is upstream of Exon X, which is upstream of Exon D. R1, R2 and R3 represent RNA sequencing (RNASeq) reads spanning the regions between two adjacent exons. UI1, I1X, XI2 and I2D are four regions flanking the four splice sites of the exon-triplet. Each flanking region consists of 25 exonic base pairs and 75 intronic base pairs.
FIG. 2B provides a volcano plot showing the ψ (PSI: Percent Spliced-In) changes in splicing after treatment with Compound (I). Each dot represents one of the 161,097 expressed exon triplets in human fibroblasts. The x axis represents the ψ changes after treatment and the y axis represents the False Discovery Rate (FDR) (log 10 transformed). […] The horizontal dashed line indicates an FDR of 0.1. The dots on the right side of the right vertical dashed line and above the horizontal dashed line represent the exon-triplets with an increase for Exon X inclusion (Δψ≥0.1 and FDR<0.1) while the dots on left side of the left vertical dashed line and above the horizontal dashed line represent an increase for Exon X exclusion (Δψ≤−0.1 and FDR<0.1). Black dots in-between the two vertical dashed lines represent exon-triplets unchanged from the treatment.
In some aspects, analysis is performed on data derived from the assay to measure the magnitude of splicing to determine the amount of exons spliced into an mRNA transcript that is produced in the presence of Compound (I) relative to the amount in the absence of Compound (I) or presence of a negative control. In a preferred aspect, the method utilized is calculation of change in Percent Spliced In (ΔPSI). […] The ΔPSI value is derived from the formula: […]
The values for “a” and “b” represent the number of reads supporting the probability for potential inclusion or exclusion of an exon in an RNA transcript. The “a” value is derived from the number of reads within an exon triplet covering, in 5′ to 3′ order: the last few bases (>1 nucleotide) of an upstream exon operably linked to the first few bases (>1 nucleotide) of a middle exon. The “b” value is derived from the number of reads within an exon triplet covering, in 5′ to 3′ order: the last few bases (>1 nucleotide) of the middle exon operably linked to the first few bases (>1 nucleotide) of a downstream exon. The number of reads will indicate whether the splice junction of a middle exon has been identified as potentially having a CNN Motif(s) by the CNN Model described herein, wherein the inclusion or exclusion of the middle exon may be modulated in the presence of Compound (I) to produce one or more mature RNA isoforms from the gene transcript. The value for “c” represents the number of reads supporting the exclusion of the middle exon.
The effect on splicing modulation and corresponding splice differences toward exon inclusion or exclusion was determined by counting the RNASeq reads covering two splice junctions of exon triplets (three consecutive exons: Exon U, Exon X, Exon D) and the corresponding intervening introns, then comparing the change in Percent Spliced In (ΔPSI or Δψ) of the middle exon (Exon X) after treatment (as shown in FIG. 2A)^52,53. 934 exon triplets were identified showing differential middle exon inclusion or exclusion in response to Compound (I) treatment. Of these, 254 were exon inclusion events (Δψ≥0.1 and FDR<0.1) and 680 were exon exclusion events (Δψ≤−0.1 and FDR<0.1) (as shown in FIG. 2B). […] The splicing results were evaluated by RT-PCR in independent replicate experiments, confirming all the calculated Δψ values. […]

Compound: Clc1nc(NCc2ccncc2)c2cc[nH]c2n1 [Compound (I), 2-chloro-N-(pyridin-4-ylmethyl)-7H-pyrrolo[2,3-d]pyrimidin-4-amine]
- splicing changes, share of all expressed triplets (934 out of 161,097 expressed triplets): 0.58%
- Effect (Exc/Inc/Unc of the middle exon of the exon triplet, six WT human fibroblast cell lines treated for seven days vs DMSO, gene LENG8): Exc
- Effect (Exc/Inc/Unc of the middle exon of the exon triplet, six WT human fibroblast cell lines treated for seven days vs DMSO, gene LGALS8): Inc
- Effect (Exc/Inc/Unc of the middle exon of the exon triplet, six WT human fibroblast cell lines treated for seven days vs DMSO, gene LRP12): Unc
- Effect (MYO1B Exon 192265475-192265561): Inc
- T-PSI (MYO1B Exon 192265475-192265561): 0.296
- ΔPSI (MYO1B Exon 192265475-192265561): 0.128
- Effect (MYO1B Exon 192267358-192267444): Inc
- T-PSI (MYO1B Exon 192267358-192267444): 0.483
- ΔPSI (MYO1B Exon 192267358-192267444): 0.190
- Effect (MYO5A Exon 52630007-52630081): Exc
- T-PSI (MYO5A Exon 52630007-52630081): 0.063
- ΔPSI (MYO5A Exon 52630007-52630081): −0.118
- Effect (MYO5A Exon 52635314-52635394): Unc
- T-PSI (MYO5A Exon 52635314-52635394): 0.617
- ΔPSI (MYO5A Exon 52635314-52635394): 0.007
- Effect (MYO5A Exon 52641015-52641023): Inc
- T-PSI (MYO5A Exon 52641015-52641023): 0.953
- ΔPSI (MYO5A Exon 52641015-52641023): 0.130
- Effect (MYO18A Exon 27464034-27464102): Unc
- T-PSI (MYO18A Exon 27464034-27464102): 0.330
- ΔPSI (MYO18A Exon 27464034-27464102): 0.005
- Effect (MYO19 Exon 34870956-34871025): Exc
- T-PSI (MYO19 Exon 34870956-34871025): 0.870
- ΔPSI (MYO19 Exon 34870956-34871025): −0.109
- Effect (N6AMT2 Exon 21311862-21311944): Unc
- T-PSI (N6AMT2 Exon 21311862-21311944): 0.755
- ΔPSI (N6AMT2 Exon 21311862-21311944): 0.010
- Effect (NABP1 Exon 192547218-192547321): Inc
- T-PSI (NABP1 Exon 192547218-192547321): 0.729
- ΔPSI (NABP1 Exon 192547218-192547321): 0.198
- Effect (NADK2 Exon 36208727-36208792): Exc
- T-PSI (NADK2 Exon 36208727-36208792): 0.005
- ΔPSI (NADK2 Exon 36208727-36208792): −0.102
- Effect (NAE1 Exon 66860571-66860683): Exc
- T-PSI (NAE1 Exon 66860571-66860683): 0.596
- ΔPSI (NAE1 Exon 66860571-66860683): −0.315
- Effect (NAE1 Exon 66860580-66860683): Exc
- T-PSI (NAE1 Exon 66860580-66860683): 0.859
- ΔPSI (NAE1 Exon 66860580-66860683): −0.115
- Effect (NBN Exon 90994181-90994230): Exc
- T-PSI (NBN Exon 90994181-90994230): 0.017
- ΔPSI (NBN Exon 90994181-90994230): −0.156
- Effect (NCK2 Exon 106497784-106498505): Unc
- T-PSI (NCK2 Exon 106497784-106498505): 0.586
- ΔPSI (NCK2 Exon 106497784-106498505): −0.008
- Effect (NCOR2 Exon 124811955-124812179): Unc
- T-PSI (NCOR2 Exon 124811955-124812179): 0.657
- ΔPSI (NCOR2 Exon 124811955-124812179): 0.000
- Effect (NCOR2 Exon 124812093-124812179): Unc
- T-PSI (NCOR2 Exon 124812093-124812179): 0.681
- ΔPSI (NCOR2 Exon 124812093-124812179): −0.001
- Effect (NEDD1 Exon 97301382-97301634): Unc
- T-PSI (NEDD1 Exon 97301382-97301634): 0.826
- ΔPSI (NEDD1 Exon 97301382-97301634): −0.003
- Effect (NEDD1 Exon 97301480-97301634): Unc
- T-PSI (NEDD1 Exon 97301480-97301634): 0.878
- ΔPSI (NEDD1 Exon 97301480-97301634): 0.008
- Effect (NEK1 Exon 170508710-170508764): Exc
- T-PSI (NEK1 Exon 170508710-170508764): 0.830
- ΔPSI (NEK1 Exon 170508710-170508764): −0.152
- Effect (NEO1 Exon 73567033-73567065): Inc
- T-PSI (NEO1 Exon 73567033-73567065): 0.149
- ΔPSI (NEO1 Exon 73567033-73567065): 0.120
- Effect (NEXN Exon 78390873-78390914): Exc
- T-PSI (NEXN Exon 78390873-78390914): 0.654
- ΔPSI (NEXN Exon 78390873-78390914): −0.138
- Effect (NF2 Exon 30079009-30079053): Inc
- T-PSI (NF2 Exon 30079009-30079053): 0.900
- ΔPSI (NF2 Exon 30079009-30079053): 0.167
- Effect (NF2 Exon 30079009-30079068): Inc
- T-PSI (NF2 Exon 30079009-30079068): 0.807
- ΔPSI (NF2 Exon 30079009-30079068): 0.244
- Effect (NFE2L1 Exon 46134394-46134483): Exc
- T-PSI (NFE2L1 Exon 46134394-46134483): 0.327
- ΔPSI (NFE2L1 Exon 46134394-46134483): −0.156
